Measured values from paper PMC7782793, “Hydroxamic acid-modified peptide microarrays for profiling isozyme-selective interactions and inhibition of histone deacetylases” (Nature Communications, 2021).
Where “and” joins values, the source holds several entries; their conditions need not be identical. Equal values may be shown once. Marks after values point to notes of the source that are not given here. Non-standard residues stand in square brackets, D forms with d. Residues, ends and D or L forms follow the SMILES beside them. *: point of attachment. Asu = N[C@@H](CCCCCC(=O)O)C(=O)O; NHOH = ON*

Legend:
HDAC1 [1] = biological target: T1, HDAC1 (Homo sapiens, UniProt Q13547); assay: Recombinant HDAC µSPOT microarray binding assay;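 note: slides with spotted peptides incubated with six HDAC concentrations in HEPES buffer pH 7.4, spot intensities fitted by four-parameter logistic, EC50 as enzyme concentration giving half-maximal binding signal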
T1 construct: HDAC1 (full length, C-terminal His tag, C-terminal FLAG tag, BPS Bioscience, cat. #: 50051); FLAG (C); purchased BPS Bioscience 50051

HDAC2 [2] = biological target: T2, HDAC2 (Homo sapiens, UniProt Q92769); assay: Recombinant HDAC µSPOT microarray binding assay;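 note: Cellulose-bound peptide spots on slides incubated with six HDAC enzyme concentrations, binding intensity read, four-parameter variable-slope fit, EC50 is enzyme concentration giving half-maximal binding, in HEPES buffer pH 7.4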
T2 construct: HDAC2 (full length, C-terminal His tag, BPS Bioscience, cat. #: 50002); purchased BPS Bioscience 50002

HDAC3/NCoR2 [3] = biological target: T3, HDAC3/NCoR2 (Homo sapiens, UniProt O15379); assay: Recombinant HDAC µSPOT microarray binding assay;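 note: peptide spots on cellulose slides incubated with rising HDAC enzyme concentrations, imaged together, four-parameter logistic fit, EC50 is enzyme concentration giving half-maximal binding signal, two experiments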
T3 construct: HDAC3/NCoR2 (full length, C-terminal His tag, NCoR2 N-terminal GST tag); purchased BPS Bioscience 50003
Experimental: Experiments were performed twice, data were obtained with Array Analyze software (Active Motif), and data analysis and representation were performed with the GraphPad Prism 7 software. Outliers were curated manually and data were fitted to nonlinear regression [log(agonist) vs. response—variable slope (four parameters)]. […] Non-sigmoidal curves were denoted as not determined (N.D.) The pEC50 values were determined as the concentration of HDAC enzyme required for half-maximal binding signal.

HDAC8 [4] = biological target: T4, HDAC8 (Homo sapiens, UniProt Q9BY41); assay: Recombinant HDAC µSPOT microarray binding assay;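 note: peptide µSPOT slides incubated with varying HDAC enzyme concentrations, imaged signal intensity fitted by four-parameter variable-slope regression, EC50 is enzyme concentration giving half-maximal binding, pH 7.4 HEPES buffer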
T4 construct: HDAC8 (full length, C-terminal His tag, BPS Bioscience, cat. #: 50008); purchased BPS Bioscience 50008
T4 sequence (Q9BY41 1-377): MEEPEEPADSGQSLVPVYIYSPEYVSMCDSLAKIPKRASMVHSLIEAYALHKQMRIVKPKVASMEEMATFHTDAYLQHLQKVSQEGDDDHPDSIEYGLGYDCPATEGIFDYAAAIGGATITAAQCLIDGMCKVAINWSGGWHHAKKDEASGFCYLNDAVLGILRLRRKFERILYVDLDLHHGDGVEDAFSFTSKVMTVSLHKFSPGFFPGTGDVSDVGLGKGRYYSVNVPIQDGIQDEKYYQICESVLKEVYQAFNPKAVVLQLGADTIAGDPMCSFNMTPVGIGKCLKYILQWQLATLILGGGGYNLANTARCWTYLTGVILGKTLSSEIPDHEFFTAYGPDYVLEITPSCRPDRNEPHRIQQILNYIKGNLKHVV

HDAC1 [5] = biological target: T1, HDAC1; assay: HDAC inhibition assay (fluorogenic, Ac-Leu-Gly-Lys(Ac)-AMC); type: biochemical; settings: for HDAC1 dose-response data (relative enzyme activity), Fig. 6 + S. Fig. 10: duplicate columns
HDAC2 [6] = biological target: T2, HDAC2; assay: as above; type: biochemical; settings: for HDAC2 dose-response data (relative enzyme activity), Fig. 6 + S. Fig. 10: duplicate columns
HDAC3/NCoR2 [7] = biological target: T3, HDAC3/NCoR2; assay: as above; type: biochemical; settings: for HDAC3 dose-response data (relative enzyme activity), Fig. 6 + S. Fig. 10: duplicate columns
HDAC8 [8] = biological target: T4, HDAC8; assay: HDAC inhibition assay (fluorogenic, Ac-Leu-Gly-Lys(Tfa)-AMC); type: biochemical; settings: for HDAC8 dose-response data (relative enzyme activity, replicate values), Fig. 6 + S. Fig. 10: two replicate columns per inhibitor; for HDAC8 dose-response data (relative enzyme activity), Fig. 6 + S. Fig. 10: duplicate columns
HDAC6 = biological target: T5, HDAC6 (Homo sapiens, UniProt Q9UBN7); assay: HDAC inhibition assay (fluorogenic, Ac-Leu-Gly-Lys(Ac)-AMC); type: biochemical; settings: HDAC6, replicates
T5 construct: HDAC6 (full length, BPS Bioscience, cat. #: 50056); purchased BPS Bioscience 50056
T5 sequence (Q9UBN7 1-1215): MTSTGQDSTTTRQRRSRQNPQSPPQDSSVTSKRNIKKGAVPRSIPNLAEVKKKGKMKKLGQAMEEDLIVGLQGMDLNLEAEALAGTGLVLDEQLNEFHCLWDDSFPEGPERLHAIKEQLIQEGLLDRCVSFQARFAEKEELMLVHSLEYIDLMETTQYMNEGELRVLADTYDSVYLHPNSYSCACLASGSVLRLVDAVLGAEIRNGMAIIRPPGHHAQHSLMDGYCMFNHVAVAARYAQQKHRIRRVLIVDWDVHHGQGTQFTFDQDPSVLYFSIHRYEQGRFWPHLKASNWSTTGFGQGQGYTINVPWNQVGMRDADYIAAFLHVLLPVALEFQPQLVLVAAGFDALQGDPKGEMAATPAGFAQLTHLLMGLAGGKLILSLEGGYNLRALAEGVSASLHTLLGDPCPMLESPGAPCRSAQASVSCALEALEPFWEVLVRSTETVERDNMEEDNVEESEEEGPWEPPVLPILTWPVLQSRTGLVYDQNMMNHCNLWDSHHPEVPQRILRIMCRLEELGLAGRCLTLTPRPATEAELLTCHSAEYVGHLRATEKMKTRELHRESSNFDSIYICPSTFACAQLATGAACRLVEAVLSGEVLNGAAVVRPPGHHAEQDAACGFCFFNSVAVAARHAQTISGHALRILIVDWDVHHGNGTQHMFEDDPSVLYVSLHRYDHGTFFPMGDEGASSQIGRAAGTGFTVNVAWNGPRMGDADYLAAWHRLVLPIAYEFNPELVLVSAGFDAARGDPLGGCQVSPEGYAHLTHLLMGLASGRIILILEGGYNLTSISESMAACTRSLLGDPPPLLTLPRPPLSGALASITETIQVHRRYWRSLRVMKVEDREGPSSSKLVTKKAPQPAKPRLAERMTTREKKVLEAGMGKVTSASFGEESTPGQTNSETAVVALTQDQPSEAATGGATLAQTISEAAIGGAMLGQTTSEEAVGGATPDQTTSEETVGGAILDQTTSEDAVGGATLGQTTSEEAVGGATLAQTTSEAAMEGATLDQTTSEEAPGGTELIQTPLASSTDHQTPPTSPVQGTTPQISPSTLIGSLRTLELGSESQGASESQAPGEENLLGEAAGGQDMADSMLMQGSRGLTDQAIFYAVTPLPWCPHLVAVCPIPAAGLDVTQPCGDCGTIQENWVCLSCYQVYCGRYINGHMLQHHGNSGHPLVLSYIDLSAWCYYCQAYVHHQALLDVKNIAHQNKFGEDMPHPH

[9] = log[inhibitor(M)] -10,5850266520292*, whole line marked with asterisks

T1 sequence (Q13547 whole entry): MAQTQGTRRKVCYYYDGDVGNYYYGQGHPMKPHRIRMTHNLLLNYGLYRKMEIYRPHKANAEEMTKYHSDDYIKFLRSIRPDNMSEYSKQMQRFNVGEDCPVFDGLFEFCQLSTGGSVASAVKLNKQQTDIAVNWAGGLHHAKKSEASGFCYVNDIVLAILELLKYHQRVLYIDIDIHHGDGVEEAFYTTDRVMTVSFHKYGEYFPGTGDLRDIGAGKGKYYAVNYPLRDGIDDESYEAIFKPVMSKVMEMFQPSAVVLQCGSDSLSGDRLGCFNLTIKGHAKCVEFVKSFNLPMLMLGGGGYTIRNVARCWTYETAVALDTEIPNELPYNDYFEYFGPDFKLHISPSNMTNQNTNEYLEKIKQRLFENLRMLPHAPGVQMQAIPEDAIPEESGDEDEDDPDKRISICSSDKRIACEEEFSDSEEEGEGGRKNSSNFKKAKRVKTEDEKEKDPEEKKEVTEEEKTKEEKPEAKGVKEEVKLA
T3 sequence (O15379 whole entry): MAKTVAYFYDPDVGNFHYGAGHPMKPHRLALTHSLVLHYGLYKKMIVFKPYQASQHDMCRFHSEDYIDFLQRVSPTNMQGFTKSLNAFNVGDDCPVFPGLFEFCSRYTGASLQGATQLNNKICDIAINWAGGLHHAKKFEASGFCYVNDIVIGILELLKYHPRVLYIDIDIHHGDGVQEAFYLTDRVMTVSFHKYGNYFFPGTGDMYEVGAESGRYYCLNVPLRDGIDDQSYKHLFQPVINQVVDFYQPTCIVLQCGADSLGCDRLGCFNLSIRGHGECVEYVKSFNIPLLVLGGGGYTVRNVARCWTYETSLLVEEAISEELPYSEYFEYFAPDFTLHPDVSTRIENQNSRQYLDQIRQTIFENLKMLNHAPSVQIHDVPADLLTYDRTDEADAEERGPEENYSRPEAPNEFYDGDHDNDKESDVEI
T3 sequence (Q9Y618 389-480 partner limits assumed): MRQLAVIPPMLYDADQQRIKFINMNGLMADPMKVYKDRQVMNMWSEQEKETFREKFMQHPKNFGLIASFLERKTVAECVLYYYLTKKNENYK
T2 sequence (Q92769 whole entry): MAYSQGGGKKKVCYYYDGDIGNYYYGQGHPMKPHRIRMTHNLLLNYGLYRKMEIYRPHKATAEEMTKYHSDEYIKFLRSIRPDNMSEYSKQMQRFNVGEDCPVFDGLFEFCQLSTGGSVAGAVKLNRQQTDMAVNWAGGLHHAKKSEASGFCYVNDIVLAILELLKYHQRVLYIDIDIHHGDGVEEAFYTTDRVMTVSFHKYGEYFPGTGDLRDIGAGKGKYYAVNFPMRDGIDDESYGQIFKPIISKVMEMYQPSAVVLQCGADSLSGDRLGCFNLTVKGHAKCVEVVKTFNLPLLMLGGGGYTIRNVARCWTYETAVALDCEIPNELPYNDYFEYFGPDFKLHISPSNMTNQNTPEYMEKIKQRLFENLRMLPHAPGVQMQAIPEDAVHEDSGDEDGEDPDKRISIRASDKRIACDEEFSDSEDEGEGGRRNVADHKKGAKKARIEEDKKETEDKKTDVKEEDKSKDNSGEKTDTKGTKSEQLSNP

SMILES: CC(=O)N1CCC[C@H]1C(=O)N[C@@H](CCCNC(=N)N)C(=O)N[C@@H](CCCCN)C(=O)N[C@@H](CCC(N)=O)C(=O)N[C@@H](CC(C)C)C(=O)N[C@@H](C)C(=O)N[C@H](C(=O)N[C@@H](CCCCN)C(=O)N[C@@H](C)C(=O)N[C@@H](C)C(=O)N[C@@H](CCCNC(=N)N)C(=O)N[C@@H](CCCCCC(=O)NO)C(=O)N[C@@H](CO)C(=O)N[C@@H](C)C(=O)N1CCC[C@H]1C(=O)N[C@@H](C)C(=O)N[C@@H](Cc1c[nH]c2ccccc12)C(N)=O)[C@@H](C)O [14a] (Ac-PRKQLATKAAR[Asu](NHOH)SAPAW-NH2)
- EC50 (HDAC1 [1]): 9.12 nM
- EC50 (HDAC2 [2]): 2.82 nM
- EC50 (HDAC3/NCoR2 [3]): 2.95 nM
- EC50 (HDAC8 [4]): 3.02 nM
- Ki (HDAC1 [5]): 24.7 ± 0.5 nM
- HDAC1 dose-response data (relative enzyme activity), Fig. 6 + S. Fig. 10 (HDAC1 [5]; log[inhibitor(M)] -5): 15.0147 and 10.9187
- HDAC1 dose-response data (relative enzyme activity), Fig. 6 + S. Fig. 10 (HDAC1 [5]; log[inhibitor(M)] -5.69897): 14.0922 and 20.0402
- HDAC1 dose-response data (relative enzyme activity), Fig. 6 + S. Fig. 10 (HDAC1 [5]; log[inhibitor(M)] -6.39794): 32.9512 and 39.8845
- HDAC1 dose-response data (relative enzyme activity), Fig. 6 + S. Fig. 10 (HDAC1 [5]; log[inhibitor(M)] -7.79588): 81.8715 and 100.09
- HDAC1 dose-response data (relative enzyme activity), Fig. 6 + S. Fig. 10 (HDAC1 [5]; log[inhibitor(M)] -8.49485): 94.0176 and 111.23
- HDAC1 dose-response data (relative enzyme activity), Fig. 6 + S. Fig. 10 (HDAC1 [5]; log[inhibitor(M)] -9.19382): 106.697 and 107.189
- HDAC1 dose-response data (relative enzyme activity), Fig. 6 + S. Fig. 10 (HDAC1 [5]; log[inhibitor(M)] -9.89279): 102.41 and 107.234
- HDAC1 dose-response data (relative enzyme activity), Fig. 6 + S. Fig. 10 (HDAC1 [5]; [9]): 103,6577* and 97,95181*
- HDAC2 dose-response data (relative enzyme activity), Fig. 6 + S. Fig. 10 (HDAC2 [6]; log[inhibitor(M)] -5): 11.6652 and 17.3045
- HDAC2 dose-response data (relative enzyme activity), Fig. 6 + S. Fig. 10 (HDAC2 [6]; log[inhibitor(M)] -5.69897): 34.222 and 35.4537
- HDAC2 dose-response data (relative enzyme activity), Fig. 6 + S. Fig. 10 (HDAC2 [6]; log[inhibitor(M)] -7.79588): 103.08 and 94.3091
- HDAC2 dose-response data (relative enzyme activity), Fig. 6 + S. Fig. 10 (HDAC2 [6]; [9]): 107,4969* and 95,99841*
- Ki (HDAC2 [6]; resynthesized peptide in solution, Cheng-Prusoff, n = 2): 98 ± 1 nM
- Ki (HDAC3/NCoR2 [7]): 16.8 ± 0.2 nM
- HDAC3 dose-response data (relative enzyme activity), Fig. 6 + S. Fig. 10 (HDAC3/NCoR2 [7]; log[inhibitor(M)] -4.30103): 0.8181 and 0.573
- HDAC3 dose-response data (relative enzyme activity), Fig. 6 + S. Fig. 10 (HDAC3/NCoR2 [7]; log[inhibitor(M)] -5): 3.641 and 2.7786
- HDAC3 dose-response data (relative enzyme activity), Fig. 6 + S. Fig. 10 (HDAC3/NCoR2 [7]; log[inhibitor(M)] -5.69897): 13.6613 and 10.1867
- HDAC3 dose-response data (relative enzyme activity), Fig. 6 + S. Fig. 10 (HDAC3/NCoR2 [7]; log[inhibitor(M)] -6.39794): 32.1253 and 23.5469
- HDAC3 dose-response data (relative enzyme activity), Fig. 6 + S. Fig. 10 (HDAC3/NCoR2 [7]; log[inhibitor(M)] -7.09691): 54.9619 and 43.4084
- HDAC3 dose-response data (relative enzyme activity), Fig. 6 + S. Fig. 10 (HDAC3/NCoR2 [7]; log[inhibitor(M)] -7.79588): 82.3244 and 70.9683
- HDAC3 dose-response data (relative enzyme activity), Fig. 6 + S. Fig. 10 (HDAC3/NCoR2 [7]; log[inhibitor(M)] -8.49485): 99.6485 and 88.5218
- HDAC3 dose-response data (relative enzyme activity), Fig. 6 + S. Fig. 10 (HDAC3/NCoR2 [7]; log[inhibitor(M)] -9.19382): 108.712 and 95.7391
- HDAC3 dose-response data (relative enzyme activity), Fig. 6 + S. Fig. 10 (HDAC3/NCoR2 [7]; log[inhibitor(M)] -9.89279): 105.572 and 99.3991
- HDAC3 dose-response data (relative enzyme activity), Fig. 6 + S. Fig. 10 (HDAC3/NCoR2 [7]; [9]): 106,3724* and 79,46551*
- Ki (HDAC8 [8]): 55 ± 0.7 nM
- HDAC8 dose-response data (relative enzyme activity, replicate values), Fig. 6 + S. Fig. 10 (HDAC8 [8]; Inhibitor conc [M] -8.49485 (log)): 89.9056 and 98.262
- HDAC8 dose-response data (relative enzyme activity, replicate values), Fig. 6 + S. Fig. 10 (HDAC8 [8]; Inhibitor conc [M] -9.19382 (log)): 96.4725 and 98.8615
- HDAC8 dose-response data (relative enzyme activity, replicate values), Fig. 6 + S. Fig. 10 (HDAC8 [8]; Inhibitor conc [M] given as -7.09691 (log)): 43.1119 and 55.3592
- HDAC8 dose-response data (relative enzyme activity, replicate values), Fig. 6 + S. Fig. 10 (HDAC8 [8]; Inhibitor conc [M] given as -7.79588 (log)): 72.8593 and 80.9184
- HDAC8 dose-response data (relative enzyme activity, replicate values), Fig. 6 + S. Fig. 10 (HDAC8 [8]; Inhibitor conc [M] given as -9.89279 (log)): 99.4729 and 100.504
- HDAC8 dose-response data (relative enzyme activity), Fig. 6 + S. Fig. 10 (HDAC8 [8]; Inhibitor conc [M] -4.30103): 2.477 and 2.544
- HDAC8 dose-response data (relative enzyme activity), Fig. 6 + S. Fig. 10 (HDAC8 [8]; Inhibitor conc [M] -5): 8.237 and 8.756
- HDAC8 dose-response data (relative enzyme activity), Fig. 6 + S. Fig. 10 (HDAC8 [8]; Inhibitor conc [M] -5.69897): 16.1631 and 21.2375
- HDAC8 dose-response data (relative enzyme activity), Fig. 6 + S. Fig. 10 (HDAC8 [8]; Inhibitor conc [M] -6.39794): 27.7385 and 36.3881
- HDAC8 inhibition in words (HDAC8 [8]; in solution): robust nanomolar potency
- residual enzymatic activity relative to control wells (HDAC6; log[inhibitor(M)] -4.30103): 0.91 and 1.08
- residual enzymatic activity relative to control wells (HDAC6; log[inhibitor(M)] -5): 1.61 and 1.34
- residual enzymatic activity relative to control wells (HDAC6; log[inhibitor(M)] -5.69897): 2.69 and 2.19
- residual enzymatic activity relative to control wells (HDAC6; log[inhibitor(M)] -6.39794): 9.28 and 7.48
- residual enzymatic activity relative to control wells (HDAC6; log[inhibitor(M)] -7.09691): 29.33 and 24.37
- residual enzymatic activity relative to control wells (HDAC6; log[inhibitor(M)] -7.79588): 61.34 and 57.66
- residual enzymatic activity relative to control wells (HDAC6; log[inhibitor(M)] -8.49485): 91.27 and 83.89
- residual enzymatic activity relative to control wells (HDAC6; log[inhibitor(M)] -9.19382): 101.6 and 95.57
- residual enzymatic activity relative to control wells (HDAC6; log[inhibitor(M)] -9.89279): 101.56 and 98.95
- residual enzymatic activity relative to control wells (HDAC6; log[inhibitor(M)] -10.585): 102,36* and 98,9*
